Measured values published in patent US4570005A, “Process for the preparation of 2-arylpropyl ether or thioether derivatives” (priority 1980, dated 1986).

How the values were obtained:
two-spotted spider mite = assay: Test 6: Effect on Two-Spotted Spider mite Adults; assay type: in vivo; details: 100 ppm, adults, 24 hours, 25° C; for mortality at 100 ppm: Tetranychus urticae, read-out: Mortality (%)
male mice = assay: Test 9: Toxicity Test (acute oral toxicity, mice); details: oral; corn oil; male mice; 7 days
Protocol: (§1) A predetermined amount of a solution or suspension of a test compound in corn oil was orally administered to male mice having a body weight of 19 to 23 g (0.2 ml per 10 g of the body weight). After 7 days, the number of killed mice was counted and the influences on the mice were examined.

tobacco cutworm [1] = assay: Test 1: Effect on Tobacco Cutworm (leaf immersion), mortality after 24 hours; assay type: in vivo; details: second-instar larvae, 25° C
How it was run: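 Second-instar tobacco cutworm larvae were kept at 25 °C on air-dried sweet-potato leaves that had been immersed for 10 s in test dilutions of 100 or 20 ppm from an emulsifiable concentrate. Mortality was scored at 24 h as the mean of three cups.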

tobacco cutworm [2] = assay: Test 2: Tobacco Cutworm Larva Dipping Test, mortality after 24 hours; assay type: in vivo; details: 24 hours
How it was run: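 Second- and fifth-instar larvae dipped 5 s in a water dilution of an emulsifiable concentrate at 100 or 20 ppm, blotted, then held on artificial diet at 25° C. Dead and living larvae counted after 24 hours; mortality averaged over three cups.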

[3] = system: resistant green rice leafhopper (collected at Nakagawara); assay: Test 3: Effect on Resistant Green Rice Leafhopper (collected at Nakagawara); assay type: in vivo, Nephotettix cincticeps Uhler (Green rice leafhopper); details: Nephotettix cincticeps, 24 h, read-out: Mortality (%), Green Rice Leafhopper Collected at Nakagawara
How it was run: (§2)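 Ten adult females per pot, either resistant (Nakagawara) or sensitive (Chigasaki), were caged on air-dried rice seedlings (2–3 leaves) sprayed at 3 ml/pot with 100 or 20 ppm of an emulsifiable concentrate dilution. Dead and living insects were counted after 24 hours; mortality is the mean of three pots.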

[4] = system: sensitive green rice leafhopper (collected at Chigasaki); assay: whole plant or invertebrate; assay type: in vivo; details: Nephotettix cincticeps, sensitive female adults, 24 hours, read-out: Mortality (%), Green Rice Leafhopper Collected at Chigasaki
How it was run: as §2

diamond back moth = assay: Test 4: Effect on Diamond Back Moth; assay type: in vivo; details: Plutella, third-instar larvae, 24 hours, read-out: Mortality (%)
How it was run: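 Compound formulated as an emulsifiable concentrate, diluted in water to 100 or 20 ppm and sprayed at 3 ml per cup onto cabbage leaves holding 10 third-instar larvae. Mortality counted after 24 hours; mean of three cups.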

green peach aphid = assay: Test 5: Effect on Green Peach Aphid; assay type: in vivo; details: Myzus persicae; 100 ppm; mortality class; 24 hours; read-out: Insecticidal Activity
How it was run: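 Eggplant seedlings with 3–4 leaves were infested with aphids and sprayed with a 100 ppm aqueous dilution of an emulsifiable concentrate, then kept in a glasshouse. Living insects were counted after 24 h. Mortality is averaged over three pots and graded A (>95%), B (80–95%), C (50–80%) or D (<50%).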

German cockroach = assay: Test 7: Effect on German Cockroach; assay type: in vivo; details: Blattella germanica, male adults, agonized and killed after 24 hours, read-out: Mortality (%); for mortality at 10 mg/m2: 10 mg/m^2; for mortality at 50 mg/m2: 50 mg/m^2
How it was run: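 Petri dish floors were treated with 50 or 10 mg/m2 of compound (diluted emulsifiable concentrate) and air-dried. Ten male adult German cockroaches per dish were held at 25° C. Agonized and dead insects were counted after 24 hours, averaging two dishes.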

Test 8: Fish Toxicity = assay type: in vivo; details: carp, water; concentration at which 1/2 of the test fishes were killed within 48 hours; read-out: Fish Toxicity, TLm48
Protocol: A water tank having a width of 60 cm, a length of 30 cm and a height of 40 cm was filled with water, and 10 yearling carps having a body length of about 5 cm were set free in the tank and adapted to the environment in the tank. A test compound was applied so that the concentration in water was 10, 1 or 0.1 ppm. After 48 hours, the numbers of killed and living carps were counted and the influences on the fishes were examined.

[5] = Test 9: Toxicity Test (acute oral toxicity, mice); details: mouse, in vivo, po
Protocol: as §1

plants of Solanacede = details: Fenvalerate; general statement; cited from earlier work
[6] = fifth-instar larvae, read-out: Motality (%), Fifth-Instar Larvae
[7] = second-instar larvae, read-out: Motality (%), Second-Instar Larvae

Molecule | mortality at 20 ppm (tobacco cutworm [1]) [%] | mortality at 100 ppm (tobacco cutworm [1]) [%] | mortality at 20 ppm (tobacco cutworm [2]; [6]) [%] | mortality at 20 ppm (tobacco cutworm [2]; [7]) [%] | mortality at 100 ppm (tobacco cutworm [2]; [6]) [%] | mortality at 100 ppm (tobacco cutworm [2]; [7]) [%] | mortality at 20 ppm [3] [%] | mortality at 100 ppm [3] [%] | mortality at 20 ppm [4] [%] | mortality at 100 ppm [4] [%] | mortality at 20 ppm (diamond back moth) [%] | mortality at 100 ppm (diamond back moth) [%] | mortality at 100 ppm (green peach aphid) [%] | mortality at 100 ppm (two-spotted spider mite) [%] | mortality at 10 mg/m2 (German cockroach) [%] | mortality at 50 mg/m2 (German cockroach) [%] | LC50 at 48 h (Test 8: Fish Toxicity) [µg/mL] | LD50 at 168 h [5] [mg/kg] | also measured
Pyrethrin [Comparative Compound (c), reference compound] | – | – | – | – | – | – | – | – | – | – | – | – | – | – | – | – | – | – | Mortality (%) (two-spotted spider mite): 0%; Acute Toxicity at Oral Administration, LD-50 (male mice): 340 mg/kg
CC(C)(COCc1cccc(Oc2ccccc2)c1)c1ccc2c(c1)OCO2 [Compound 7, 3-Phenoxybenzyl 2-(3,4-methylenedioxyphenyl)-2-methylpropyl ether] | 80 | 100 | 50 | 60 | 100 | 100 | 100 | 100 | 90 | 100 | 80 | 100 | > 95 | 100 | 100 | 100 | > 10 | > 500 | –
CC(C)(COCc1cccc(Oc2ccccc2)c1)c1ccc(Cl)cc1 [Compound 49, 3-Phenoxybenzyl 2-(4-chlorophenyl)-2-methylpropyl ether] | 100 | 100 | 100 | 100 | 100 | 100 | 100 | 100 | 100 | 100 | 100 | 100 | > 95 | 100 | 100 | 100 | > 10 | > 500 | –
CC(C)C(C(=O)OC(C#N)c1cccc(Oc2ccccc2)c1)c1ccc(Cl)cc1 (stereo not drawn) [Fenvalerate] | – | – | – | – | – | – | – | – | – | – | – | – | – | – | – | – | – | – | phyto-toxicity to plants of Solanacede (plants of Solanacede): observed
